Measured values: patent US8084602B2, “Porphyrin derivatives and their use in photodynamic therapy” (Destiny Pharma Limited, priority 2002, dated 2011)
Like-named read-outs stand apart in the source and are kept apart here.

Tests used:
[1] = tested on: Escherichia coli (strain ATCC 25922); experiment: Initial screening: growth inhibition after white light illumination; type: cell-based; conditions: for inhibition at 3 µM: Escherichia coli; for Growth inhibition (%): 3 μM
Protocol: (§1) The toxic effects of exemplary compounds of the invention against two bacterial strains, the Gram negative bacterium Escherichia coli (strain ATCC 25922) and the Gram positive bacterium Staphylococcus aureus (methicillin-resistant strain ATTC BAA-44), were evaluated by measuring the extent of growth inhibition (bacteriostatic effect) and growth […] (cytocidal effect) in the dark and upon light exposure. Initial compound screening was undertaken using white light [390-740 nm] (150 mW/cm^2) for various timepoints of a concentration of 3 μM (see Table 1). Further experiments were undertaken on those compounds identified from this initial screen using a light source emitting light at a wavelength between 417-420 nm at 15.2 mW/cm^2, 13.68 J/cm^2 (Waldmann Eclairage SA, France) (see Table 20.
(§2) The following protocol was used for the initial screening of the exemplary compounds (Table 1) (see Reddi et al., 2002, Photochem. Photobiol. 75(5):462-470): • (i) E. coli and S. aureus cells were grown overnight on brain heart infusion agar, resuspended in brain heart infusion broth, harvested by centrifugation (3000 g for 15 minutes) and washed once with phosphate buffered saline (PBS) at pH 7.4 consisting 2.7 mM KCl and 0.14 M NaCl. • (ii) The cells were then resuspended in PBS to an optical density at 650 nm of 0.7, which corresponds to a density of 10^8 to 10^9 cells/ml. • (iii) Next, the cells were incubated in PBS in the dark for 5 minutes with 3.0 μM of the compound to be tested. • (iv) After dark incubation, cells were illuminated with white light (wavelength: 390 to 740 nm) (150 mW/cm^2) for up to 30 minutes. During illumination, the cells were kept at 37° C. and magnetically stirred. • (v) Finally, treated and untreated (control) cells were diluted in brain heart infusion broth and maintained at […] while the absorbance of the suspension at 650 nm was monitored at predetermined time points for determining growth curves.
(§3) The percent of growth inhibition in the treated cells was calculated by the following equation: [1−(Ax−A0)/(Ac−A0)]×100 where Ax Ac are the absorbances measured after 3 hours incubation, for the treated and control cell suspensions, respectively, and A0 represents the initial absorbance.

[2] = tested on: Staphylococcus aureus (methicillin-resistant strain ATTC BAA-44); experiment: as above; type: cell-based; conditions: for inhibition at 3 µM: Staphylococcus aureus; for Growth inhibition (%): 3 μM
Protocol: as §1, §2, §3

[3] = tested on: S. aureus ATCC BAA-44 (a methicillin resistant S. aureus); experiment: Cell survival (colony forming unit) with or without illumination; type: cell-based, Staphylococcus aureus; conditions: S. aureus
Protocol: as §1
For the further investigation of the exemplary compounds (Table 2), the following protocol was adopted: • (i) Bacteria (S. aureus BAA-44 and E. coli 25922) were grown in brain heart infusion (BHI) broth until they reached the stationary phase of growth. • (ii) The cells were harvested by centrifugation (3000 g for 15 min) with a table centrifuge, washed with 10 mM PBS at pH 7.4 containing 2.7 mM KCl and 0.14 M NaCl and suspended in PBS at an optical density of 0.7 at 650 nm corresponding to 10^8-10^9 cells/ml. • (iii) The bacteria, at the desired cell density (˜10^8 cells/ml) were incubated for 5 min in the dark with various concentrations of the exemplary compounds. • (iv) At the end of the incubation period the cells were washed three times with PBS, suspended in PBS, transferred into a 96-well microtitre plate (200 μl/well) and illuminated for 15 min with the Waldmann light source (15.2 mW/cm^2; 13.7 J/cm^2). The cells were illuminated from the bottom of the plate laying it on the glass cover of the lamp. • (v) After illumination, cell survival was determined by plating serially diluted aliquots of treated and untreated (i.e. no exemplary compound or light present) cells onto brain heart agar (BHA) and counting the number of colonies after 18-24 h incubation at 37° C.
the above colony forming unit (CFU) protocol was also used to investigate the photodynamic activity of very low concentrations of the compounds of the invention.

[4] = E. coli, 5 min incubation, illumination time 0 min
[5] = E. coli, 5 min incubation, illumination time 1 min
[6] = E. coli, 5 min incubation, illumination time 5 min
[7] = E. coli, 5 min incubation, illumination time 10 min
[8] = E. coli, 5 min incubation, illumination time 15 min
[9] = E. coli, 5 min incubation, illumination time 30 min
[10] = S. aureus, 5 min incubation, illumination time 0 min
[11] = S. aureus, 5 min incubation, illumination time 1 min
[12] = S. aureus, 5 min incubation, illumination time 5 min
[13] = S. aureus, 5 min incubation, illumination time 10 min
[14] = S. aureus, 5 min incubation, illumination time 15 min
[15] = S. aureus, 5 min incubation, illumination time 30 min
[16] = BAA44, 5 min, read-out: Growth inhibition (%), S. aureus, 5 min incubation, illumination time 5 min
[17] = BAA44, read-out: Growth inhibition (%), S. aureus, 5 min incubation, illumination time 0 min
[18] = BAA44, read-out: Growth inhibition (%), S. aureus, 5 min incubation, illumination time 1 min
[19] = BAA44, read-out: Growth inhibition (%), S. aureus, 5 min incubation, illumination time 10 min
[20] = BAA44, read-out: Growth inhibition (%), S. aureus, 5 min incubation, illumination time 15 min
[21] = BAA44, read-out: Growth inhibition (%), S. aureus, 5 min incubation, illumination time 30 min

Compound	Growth inhibition (%) [1, 4] [%]	Growth inhibition (%) [1, 5] [%]	Growth inhibition (%) [1, 6] [%]	Growth inhibition (%) [1, 7] [%]	Growth inhibition (%) [1, 8] [%]	Growth inhibition (%) [1, 9] [%]	Growth inhibition (%) [2, 10] [%]	Growth inhibition (%) [2, 11] [%]	Growth inhibition (%) [2, 12] [%]	Growth inhibition (%) [2, 13] [%]	Growth inhibition (%) [2, 14] [%]	Growth inhibition (%) [2, 15] [%]	further results
CCCCCCCCCCCc1c2nc(cc3ccc([nH]3)c(-c3cc(OCCC[N+](C)(C)C)cc(OCCC[N+](C)(C)C)c3)c3nc(cc4ccc1[nH]4)C=C3)C=C2.[Cl-].[Cl-] [Compound 6, 5-[3,5-bis-(3-Trimethylammonio-propyloxy)-phenyl]-15-undecyl-porphyrin dichloride]	–	–	–	–	–	–	–	–	–	–	–	–	inhibition at 3 µM ([1]; ATCC25922, 5 min, E. coli, 5 min incubation, illumination time 5 min, read-out: Growth inhibition (%)): 30%; inhibition at 3 µM ([1]; ATCC25922, E. coli, 5 min incubation, illumination time 0 min, read-out: Growth inhibition (%)): 9%; inhibition at 3 µM ([1]; ATCC25922, E. coli, 5 min incubation, illumination time 1 min, read-out: Growth inhibition (%)): 17%; inhibition at 3 µM ([1]; ATCC25922, E. coli, 5 min incubation, illumination time 10 min, read-out: Growth inhibition (%)): 54%; inhibition at 3 µM ([1]; ATCC25922, E. coli, 5 min incubation, illumination time 15 min, read-out: Growth inhibition (%)): 69%; inhibition at 3 µM ([1]; ATCC25922, E. coli, 5 min incubation, illumination time 30 min, read-out: Growth inhibition (%)): 93%; inhibition at 3 µM ([2]; BAA44, 5 min, S. aureus, 5 min incubation, illumination time 5 min, read-out: Growth inhibition (%)): 100%; inhibition at 3 µM ([2]; BAA44, S. aureus, 5 min incubation, illumination time 0 min, read-out: Growth inhibition (%)): 29%; inhibition at 3 µM ([2]; BAA44, S. aureus, 5 min incubation, illumination time 1 min, read-out: Growth inhibition (%)): 100%; inhibition at 3 µM ([2]; BAA44, S. aureus, 5 min incubation, illumination time 10 min, read-out: Growth inhibition (%)): 100%; inhibition at 3 µM ([2]; BAA44, S. aureus, 5 min incubation, illumination time 15 min, read-out: Growth inhibition (%)): 100%; inhibition at 3 µM ([2]; BAA44, S. aureus, 5 min incubation, illumination time 30 min, read-out: Growth inhibition (%)): 100%; Log reduction ([3]; dark toxicity (no illumination), 1 μM): 1 (<10^−1); Log reduction ([3]; dark toxicity (no illumination), 10 μM): 2 (10^−2); Log reduction ([3]; photodynamic activity, 0.1 μM, illumination 15 min): 3 (10^−3); Log reduction ([3]; photodynamic activity, 1 μM, illumination 15 min): 6 (10^−6)
5-[4-(3-Dimethyldecyl-ammoniopropyloxy)-phenyl]-15-{4-[3-dimethyl-(3-dimethylaminopropyl)-ammoniopropyloxy]-phenyl}-porphyrin dichloride [Compound 32]	3	10	16	22	22	38	23	100	100	100	100	100	–
CCCCCCCCCCCOc1ccc(-c2c3nc(c(-c4ccc(OCCC[N+](CC)(CC)CC)cc4)c4ccc([nH]4)c(-c4ccc(OCCC[N+](CC)(CC)CC)cc4)c4nc(c(-c5ccc(OCCC[N+](CC)(CC)CC)cc5)c5ccc2[nH]5)C=C4)C=C3)cc1 [Compound 16, 5,10,15-tris-[4-(3-Triethylammonio-propyloxy)-phenyl]-20-(4-undecyloxy-phenyl)-porphyrin trichloride, reference compound]	–	–	–	–	–	–	–	–	–	–	–	–	inhibition at 3 µM ([1]; ATCC25922, 5 min, read-out: Growth inhibition (%), E. coli, 5 min incubation, illumination time 5 min): 92%; inhibition at 3 µM ([1]; ATCC25922, read-out: Growth inhibition (%), E. coli, 5 min incubation, illumination time 0 min): 8%; inhibition at 3 µM ([1]; ATCC25922, read-out: Growth inhibition (%), E. coli, 5 min incubation, illumination time 1 min): 34%; inhibition at 3 µM ([1]; ATCC25922, read-out: Growth inhibition (%), E. coli, 5 min incubation, illumination time 10 min): 99%; inhibition at 3 µM ([1]; ATCC25922, read-out: Growth inhibition (%), E. coli, 5 min incubation, illumination time 15 min): 100%; inhibition at 3 µM ([1]; ATCC25922, read-out: Growth inhibition (%), E. coli, 5 min incubation, illumination time 30 min): 100%; inhibition at 3 µM [2, 16]: 100%; inhibition at 3 µM [2, 17]: 12%; inhibition at 3 µM [2, 18]: 97%; inhibition at 3 µM [2, 19]: 100%; inhibition at 3 µM [2, 20]: 100%; inhibition at 3 µM [2, 21]: 100%
5,10,15-tris[3-(3-Trimethyl-ammoniopropyloxy)-phenyl]-20-(3-undecyloxy-phenyl)-porphyrin trichloride [Compound 33, reference compound]	6	10	25	53	67	78	22	57	99	100	100	100	–
5-{4-[3-Dimethyl-(3-trimethylammonio-propyl)-ammonio-propyloxy]-phenyl}-15-(4-dodecyloxy-phenyl)-porphyrin dichloride [Compound 31]	–	–	–	–	–	–	9	28	38	78	82	83	–
5,15-bis-[3-(3-Trimethylammmonio-proploxy)-phenyl]-10-undecyl-porphyrin dichloride [Compound 28]	4	21	60	73	81	92	15	91	100	100	100	100	–
5,10,15-tris-[4-(3-Trimethyl-ammoniopropyloxy)-phenyl]-20-(4-tetradecyloxy-phenyl)-porphyrin trichloride [Compound 36, reference compound]	6	56	84	90	92	95	22	96	100	100	100	100	–
CCCCCCCCCCCOc1ccc(-c2c3nc(c(-c4ccc(OCCCCCCCCCCC)cc4)c4ccc([nH]4)c(-c4ccc(OCCC[N+](C)(C)C)cc4)c4nc(c(-c5ccc(OCCC[N+](C)(C)C)cc5)c5ccc2[nH]5)C=C4)C=C3)cc1 [Compound 29, 5,10-bis-[4-(3-Trimethylammonio-propyloxy)-phenyl]-15,20-bis-(4-undecyloxy-phenyl)-porphyrin dichloride, reference compound]	–	–	–	–	–	–	–	–	–	–	–	–	inhibition at 3 µM [2, 16]: 49%; inhibition at 3 µM [2, 17]: 14%; inhibition at 3 µM [2, 18]: 43%; inhibition at 3 µM [2, 19]: 53%; inhibition at 3 µM [2, 20]: 55%; inhibition at 3 µM [2, 21]: 55%
